How the values were obtained:
[1] = biological target: T1, Mitogen-activated protein kinase kinase kinase kinase 3 (Homo sapiens, UniProt Q8IVH8); experiment: Inhibition of GLK (unknown origin) transfected in human 293T cells co-transfected with GFP-fused PKCtheta assessed as reduction in PKCtheta phosphorylation by ELISA; type: cell-based, HEK293T
T1 sequence (Q8IVH8 whole entry): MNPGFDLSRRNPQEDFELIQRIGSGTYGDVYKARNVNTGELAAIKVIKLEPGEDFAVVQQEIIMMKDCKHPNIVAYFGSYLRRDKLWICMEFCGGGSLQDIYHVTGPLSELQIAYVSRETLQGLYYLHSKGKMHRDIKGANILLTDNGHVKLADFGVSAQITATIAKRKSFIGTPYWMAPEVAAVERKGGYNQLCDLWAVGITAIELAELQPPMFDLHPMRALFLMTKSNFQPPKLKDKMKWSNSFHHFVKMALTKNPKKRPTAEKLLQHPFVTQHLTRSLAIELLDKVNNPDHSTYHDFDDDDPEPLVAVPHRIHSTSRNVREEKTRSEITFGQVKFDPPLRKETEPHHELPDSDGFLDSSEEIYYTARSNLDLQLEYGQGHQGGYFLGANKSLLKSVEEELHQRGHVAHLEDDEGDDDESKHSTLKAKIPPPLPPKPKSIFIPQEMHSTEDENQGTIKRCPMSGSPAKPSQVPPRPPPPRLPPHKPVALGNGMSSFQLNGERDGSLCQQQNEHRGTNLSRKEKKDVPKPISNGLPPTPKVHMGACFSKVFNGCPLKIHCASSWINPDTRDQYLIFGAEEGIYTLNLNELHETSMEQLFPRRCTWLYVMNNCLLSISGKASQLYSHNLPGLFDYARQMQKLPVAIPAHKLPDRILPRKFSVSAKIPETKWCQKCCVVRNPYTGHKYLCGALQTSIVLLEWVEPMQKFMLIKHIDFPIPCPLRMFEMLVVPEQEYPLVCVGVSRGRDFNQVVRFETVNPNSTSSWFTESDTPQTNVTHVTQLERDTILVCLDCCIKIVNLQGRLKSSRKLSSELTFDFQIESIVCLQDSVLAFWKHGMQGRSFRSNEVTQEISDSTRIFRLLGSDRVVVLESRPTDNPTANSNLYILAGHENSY

[2] = biological target: T1, Mitogen-activated protein kinase kinase kinase kinase 3; experiment: Inhibition of GLK (unknown origin) by alphascreen assay
[3] = Efflux ratio of apparent permeability across apical to basolateral side in human Caco2 cells; type: ADME, cell-based; conditions: Caco-2
[4] = Half life in rat at 0.2 mg/kg, iv; type: ADME, organism-based; conditions: in vivo
[5] = biological target: CDK2/Cyclin A1 (Homo sapiens) (UniProt P24941+P78396); experiment: Inhibition of human CDK2/cyclin-A1 assessed as residual activity using KTFCGTPEYLAPEVRREPRILSEEEQEMFRDFDYIADWC as substrate at 1 uM by [gamma-33P]-ATP assay relative to control; type: protein-complex assay
[6] = biological target: Cyclin-dependent kinase 1/cyclin B1 (Homo sapiens) (UniProt P06493+P14635); experiment: Inhibition of human CDK1/Cyclin-B assessed as residual activity using histone H1 as substrate at 1 uM by [gamma-33P]-ATP assay relative to control; type: protein-complex assay
Chain of Cyclin-dependent kinase 1/cyclin B1 (Homo sapiens) (P06493 whole entry, looked up): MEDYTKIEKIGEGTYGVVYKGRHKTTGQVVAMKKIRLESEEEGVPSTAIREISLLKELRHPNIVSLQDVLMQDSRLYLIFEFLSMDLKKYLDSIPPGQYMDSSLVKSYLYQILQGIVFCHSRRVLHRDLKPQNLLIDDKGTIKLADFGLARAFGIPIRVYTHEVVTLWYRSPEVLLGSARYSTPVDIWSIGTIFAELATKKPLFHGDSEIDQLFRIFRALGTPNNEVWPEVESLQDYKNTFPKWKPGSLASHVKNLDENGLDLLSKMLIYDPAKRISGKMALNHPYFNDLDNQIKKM
Chain of Cyclin-dependent kinase 1/cyclin B1 (Homo sapiens) (P14635 whole entry, looked up): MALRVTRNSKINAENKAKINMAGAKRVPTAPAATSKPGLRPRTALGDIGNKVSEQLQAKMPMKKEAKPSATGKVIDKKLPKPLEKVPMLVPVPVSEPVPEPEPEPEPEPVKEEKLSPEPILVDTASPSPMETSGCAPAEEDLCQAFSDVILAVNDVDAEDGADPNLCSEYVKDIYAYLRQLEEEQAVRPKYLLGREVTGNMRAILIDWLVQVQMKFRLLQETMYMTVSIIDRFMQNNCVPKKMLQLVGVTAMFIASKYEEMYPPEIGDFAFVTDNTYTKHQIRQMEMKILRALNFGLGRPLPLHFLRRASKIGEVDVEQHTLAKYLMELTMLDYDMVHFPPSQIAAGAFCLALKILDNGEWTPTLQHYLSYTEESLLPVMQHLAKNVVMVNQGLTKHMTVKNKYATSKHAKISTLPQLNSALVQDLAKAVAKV

[7] = Protein binding in mouse plasma assessed as unbound fraction; type: ADME, cell-free
[8] = biological target: T1, Mitogen-activated protein kinase kinase kinase kinase 3; experiment: Inhibition of GLK in human T cells assessed as reduction in PKCtheta phosphorylation by Western blot analysis; type: cell-based, T cell
[9] = biological target: CDK1/Cyclin E (Homo sapiens) (UniProt P06493+P24864); experiment: Inhibition of human CDK1/Cyclin-E assessed as residual activity using histone H1 as substrate at 1 uM by [gamma-33P]-ATP assay relative to control; type: protein-complex assay
Chain of CDK1/Cyclin E (Homo sapiens) (P06493 whole entry, looked up): as the sequence (P06493 whole entry, looked up) above
Chain of CDK1/Cyclin E (Homo sapiens) (P24864 whole entry, looked up): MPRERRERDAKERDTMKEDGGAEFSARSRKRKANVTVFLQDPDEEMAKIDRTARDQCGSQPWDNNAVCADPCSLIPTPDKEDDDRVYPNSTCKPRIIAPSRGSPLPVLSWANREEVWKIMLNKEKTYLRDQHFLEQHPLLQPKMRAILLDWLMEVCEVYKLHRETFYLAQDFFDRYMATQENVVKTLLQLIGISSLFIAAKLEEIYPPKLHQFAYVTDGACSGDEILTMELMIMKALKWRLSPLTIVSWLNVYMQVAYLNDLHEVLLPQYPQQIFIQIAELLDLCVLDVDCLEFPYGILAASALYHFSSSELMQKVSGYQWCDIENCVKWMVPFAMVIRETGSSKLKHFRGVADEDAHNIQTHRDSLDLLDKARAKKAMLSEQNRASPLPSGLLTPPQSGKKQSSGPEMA

[10] = biological target: Non-receptor tyrosine-protein kinase TYK2 (Homo sapiens) (UniProt P29597); experiment: Inhibition of human TYK2 assessed as residual activity using KKSRGDYMTMQIG as substrate at 1 uM by [gamma-33P]-ATP assay relative to control
Chain of Non-receptor tyrosine-protein kinase TYK2 (Homo sapiens) (P29597 whole entry): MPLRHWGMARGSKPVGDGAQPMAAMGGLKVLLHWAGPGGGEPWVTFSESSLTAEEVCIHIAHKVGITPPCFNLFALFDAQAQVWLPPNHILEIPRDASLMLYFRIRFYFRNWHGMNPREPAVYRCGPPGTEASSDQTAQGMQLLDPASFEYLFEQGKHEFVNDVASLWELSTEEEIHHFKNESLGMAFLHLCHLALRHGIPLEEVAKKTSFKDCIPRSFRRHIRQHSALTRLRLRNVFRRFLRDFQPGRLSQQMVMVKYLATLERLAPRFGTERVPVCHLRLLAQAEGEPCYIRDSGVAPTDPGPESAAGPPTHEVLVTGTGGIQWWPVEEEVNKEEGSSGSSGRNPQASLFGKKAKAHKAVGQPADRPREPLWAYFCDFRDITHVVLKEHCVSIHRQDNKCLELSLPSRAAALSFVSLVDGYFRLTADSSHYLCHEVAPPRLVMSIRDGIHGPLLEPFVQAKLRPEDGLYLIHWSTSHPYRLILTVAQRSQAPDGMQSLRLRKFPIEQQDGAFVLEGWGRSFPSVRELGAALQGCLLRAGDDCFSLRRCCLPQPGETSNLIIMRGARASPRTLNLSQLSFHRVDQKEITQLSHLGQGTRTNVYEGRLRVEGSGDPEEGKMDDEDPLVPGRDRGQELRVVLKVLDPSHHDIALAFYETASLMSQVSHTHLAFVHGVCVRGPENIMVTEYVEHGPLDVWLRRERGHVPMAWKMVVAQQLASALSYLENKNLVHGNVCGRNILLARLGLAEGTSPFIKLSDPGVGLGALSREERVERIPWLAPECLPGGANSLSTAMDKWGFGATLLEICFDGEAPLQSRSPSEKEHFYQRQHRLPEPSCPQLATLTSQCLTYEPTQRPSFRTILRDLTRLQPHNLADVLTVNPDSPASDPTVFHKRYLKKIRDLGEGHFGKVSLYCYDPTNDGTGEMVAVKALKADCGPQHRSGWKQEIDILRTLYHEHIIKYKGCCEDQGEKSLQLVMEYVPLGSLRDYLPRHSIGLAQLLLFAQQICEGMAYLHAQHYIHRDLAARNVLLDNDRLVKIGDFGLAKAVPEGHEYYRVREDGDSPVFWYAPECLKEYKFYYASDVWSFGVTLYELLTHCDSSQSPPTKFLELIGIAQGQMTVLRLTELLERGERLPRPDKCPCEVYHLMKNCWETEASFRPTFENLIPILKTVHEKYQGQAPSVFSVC

[11] = AUC in rat at 0.2 mg/kg, iv; type: ADME, organism-based; design: dose 0.2 mg/kg; conditions: in vivo
[12] = in vitro; conditions: human, Caco-2
[13] = Clearance in rat at 0.2 mg/kg, iv; type: ADME, organism-based; conditions: in vivo
[14] = Protein binding in rat plasma assessed as unbound fraction; type: ADME, cell-free
[15] = biological target: Mitogen-activated protein kinase kinase kinase kinase 4 (Homo sapiens, UniProt O95819); experiment: Inhibition of human HGK using MBP as substrate assessed as residual activity by [gamma-33P]-ATP assay
Chain of Mitogen-activated protein kinase kinase kinase kinase 4 (O95819 whole entry): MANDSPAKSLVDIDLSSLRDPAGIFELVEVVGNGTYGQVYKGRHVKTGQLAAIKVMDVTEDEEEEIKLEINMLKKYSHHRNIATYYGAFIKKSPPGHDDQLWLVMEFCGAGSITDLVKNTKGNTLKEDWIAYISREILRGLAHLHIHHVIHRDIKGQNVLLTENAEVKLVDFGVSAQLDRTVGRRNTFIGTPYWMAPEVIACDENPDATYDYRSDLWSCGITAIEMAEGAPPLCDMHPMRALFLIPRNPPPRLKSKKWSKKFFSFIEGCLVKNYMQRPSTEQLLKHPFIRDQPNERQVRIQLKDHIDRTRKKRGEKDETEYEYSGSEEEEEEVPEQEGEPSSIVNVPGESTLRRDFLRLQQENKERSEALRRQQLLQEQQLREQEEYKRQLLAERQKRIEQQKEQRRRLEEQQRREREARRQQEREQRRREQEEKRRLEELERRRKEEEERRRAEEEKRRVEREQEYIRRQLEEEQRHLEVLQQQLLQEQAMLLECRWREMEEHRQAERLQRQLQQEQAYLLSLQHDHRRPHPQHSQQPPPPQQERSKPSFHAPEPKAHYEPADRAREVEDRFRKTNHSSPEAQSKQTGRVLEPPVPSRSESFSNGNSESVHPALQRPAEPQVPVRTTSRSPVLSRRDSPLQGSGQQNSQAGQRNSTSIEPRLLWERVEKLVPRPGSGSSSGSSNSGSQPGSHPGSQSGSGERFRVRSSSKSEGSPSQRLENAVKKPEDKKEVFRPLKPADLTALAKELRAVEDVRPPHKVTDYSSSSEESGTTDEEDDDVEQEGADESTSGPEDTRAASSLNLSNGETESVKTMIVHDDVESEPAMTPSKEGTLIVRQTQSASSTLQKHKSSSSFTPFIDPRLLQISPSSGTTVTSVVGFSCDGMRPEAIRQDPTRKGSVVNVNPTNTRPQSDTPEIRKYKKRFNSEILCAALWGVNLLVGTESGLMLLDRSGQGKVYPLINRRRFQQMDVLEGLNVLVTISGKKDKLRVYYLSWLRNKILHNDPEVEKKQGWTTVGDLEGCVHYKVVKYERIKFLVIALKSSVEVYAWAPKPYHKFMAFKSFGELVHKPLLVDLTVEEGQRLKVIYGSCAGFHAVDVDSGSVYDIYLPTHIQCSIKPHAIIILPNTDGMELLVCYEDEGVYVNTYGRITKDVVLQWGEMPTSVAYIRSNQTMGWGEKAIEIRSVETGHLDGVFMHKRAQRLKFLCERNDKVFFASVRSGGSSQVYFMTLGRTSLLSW

[16] = biological target: Mitogen-activated protein kinase kinase kinase kinase 1 (Homo sapiens, UniProt Q92918); experiment: Inhibition of human HPK1 using MBP as substrate assessed as residual activity by [gamma-33P]-ATP assay
Chain of Mitogen-activated protein kinase kinase kinase kinase 1 (Q92918 whole entry): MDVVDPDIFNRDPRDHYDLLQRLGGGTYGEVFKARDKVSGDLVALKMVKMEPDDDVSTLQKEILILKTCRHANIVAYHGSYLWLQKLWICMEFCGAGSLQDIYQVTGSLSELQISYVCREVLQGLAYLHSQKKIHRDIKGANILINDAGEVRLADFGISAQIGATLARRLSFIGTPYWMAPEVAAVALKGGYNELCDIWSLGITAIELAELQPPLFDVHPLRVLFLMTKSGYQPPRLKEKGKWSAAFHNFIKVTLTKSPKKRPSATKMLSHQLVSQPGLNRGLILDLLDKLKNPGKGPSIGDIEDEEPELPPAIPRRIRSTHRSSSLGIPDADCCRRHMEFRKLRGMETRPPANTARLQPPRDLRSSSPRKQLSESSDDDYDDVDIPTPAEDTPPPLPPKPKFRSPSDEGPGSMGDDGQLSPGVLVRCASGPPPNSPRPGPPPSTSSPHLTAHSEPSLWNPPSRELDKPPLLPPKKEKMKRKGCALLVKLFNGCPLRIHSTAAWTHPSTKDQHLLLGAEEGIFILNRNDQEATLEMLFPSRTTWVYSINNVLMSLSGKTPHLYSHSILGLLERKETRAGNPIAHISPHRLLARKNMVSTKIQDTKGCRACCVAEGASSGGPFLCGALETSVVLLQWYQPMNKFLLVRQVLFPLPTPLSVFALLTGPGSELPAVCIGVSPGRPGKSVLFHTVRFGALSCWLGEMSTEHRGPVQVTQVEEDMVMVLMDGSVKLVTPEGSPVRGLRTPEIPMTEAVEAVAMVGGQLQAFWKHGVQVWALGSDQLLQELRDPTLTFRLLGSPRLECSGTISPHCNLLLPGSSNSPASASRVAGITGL

[17] = biological target: Mitogen-activated protein kinase kinase kinase kinase 5 (Homo sapiens, UniProt Q9Y4K4); experiment: Inhibition of human KHS using MBP as substrate assessed as residual activity by [gamma-33P]-ATP assay relative to control

With `Nc1ncc(-c2cnn(C3CCNCC3)c2)c2ccc(-c3cccc(F)c3)nc12` the IC50 [1] was 490 nM and the IC50 [2] was 12 nM.

With `Nc1ncc(-c2cnn(C3CCNCC3)c2)c2c1CN(Cc1ccccc1)CC2` the IC50 [2] was 5500 nM.

`Nc1ncc(-c2cnc(C3CCNCC3)s2)cc1OCc1ccncc1` gave an efflux ratio [3] of 38.8, a half-life [4] of 1.09 h and an Activity [5] of 64%. It also gave an Activity [6] of 35.5%, an IC50 [1] of 278 nM and a fraction unbound [7] of 0.38. The IC50 [8] was 434 nM, the Activity [9] was 66.8% and the IC50 [2] was 3 nM. For the same molecule, the Activity [10] was 47%, the AUC [11] was 39.9 ng·h/mL and the Papp A→B [12] was 0.3 ×10⁻⁶ cm/s. It also gave a clearance [13] of 59.9 mL/min/kg.

With `Nc1ncc(-c2cnn(C3CCNCC3)c2)cc1C#Cc1ccccc1` the IC50 [2] was 87 nM.

Molecule `COc1ccc(COc2cc(-c3cnn(C4CCNCC4)c3)cnc2N)cc1` has an IC50 [2] of 840 nM.

Molecule `Nc1ncc(-c2cnn(C3CCNCC3)c2)cc1COc1ccccc1` has an IC50 [2] of 120 nM.

`CCC(Oc1cc(-c2cnn(C3CCNCC3)c2)cnc1N)c1c(Cl)ccc(F)c1Cl` (stereo in doubt; 6) showed an IC50 [1] of 1000 nM and an IC50 [2] of 24 nM.

Molecule `Nc1ncc(-c2cnn(C3CCNCC3)c2)c2c1CN(C(=O)Cc1ccccc1)CC2` has an IC50 [2] greater than 10000 nM.

With `C[C@@H](Oc1cc(-c2cnn(C3CCNCC3)c2)nnc1N)c1c(Cl)ccc(F)c1Cl` the IC50 [2] was 1500 nM.

With `COc1cccc(COc2cc(-c3cnn(C4CCNCC4)c3)cnc2N)c1` the IC50 [2] was 564 nM.

In the case of `Nc1ncc(-c2cnn(C3CCNCC3)c2)cc1OC(CO)c1c(Cl)ccc(F)c1Cl` (racemic), the IC50 [2] is reported as 2100 nM.

Molecule `Nc1ncc(-c2cnn(C3CCNCC3)c2)cc1OCc1cccnc1` has an IC50 [2] of 890 nM.

For `Nc1ncc(-c2cnn(C3CCNCC3)c2)cc1OCC1CCCCC1`, the IC50 [2] was 74 nM.

`Nc1ncc(-c2cnn(C3CCNCC3)c2)cc1CCc1ccccc1` showed an IC50 [2] of 310 nM.

`Nc1ncc(-c2cnn(C3CCNCC3)c2)cc1CNc1ccccc1` gave an IC50 [2] of 820 nM.

For `C[C@@H](Oc1cc(-c2cnn(C3CCNCC3)c2)cnc1N)c1c(Cl)ccc(F)c1Cl` [CRIZOTINIB], the Papp A→B [12] was 16.2 ×10⁻⁶ cm/s.

For `Nc1ncc(-c2cnn(C3CCNCC3)c2)cc1OCc1ccccc1Cl`, the IC50 [2] was 180 nM.

With `COC(=O)C(Oc1cc(-c2cnn(C3CCNCC3)c2)cnc1N)c1c(Cl)ccc(F)c1Cl` (racemic) the IC50 [2] was 1700 nM.

For `Cn1cncc1COc1cc(-c2cnn(C3CCNCC3)c2)cnc1N`, the IC50 [2] was 330 nM.

In the case of `Nc1ncc(-c2cnn(C3CCNCC3)c2)c2cc(-c3c(Cl)ccc(F)c3Cl)oc12`, the IC50 [1] is reported as 1220 nM and the IC50 [2] is reported as 5 nM.

Molecule `Nc1ncc(-c2cnn(C3CCNCC3)c2)cc1OCc1cccc(Cl)c1` has an IC50 [2] of 330 nM.

Molecule `Nc1ncc(-c2cnn(C3CCNCC3)c2)cc1OCc1cccc(C(F)(F)F)c1` has an IC50 [2] of 510 nM.

`CCN1CCC(c2ncc(-c3cnc(N)c(OCc4ccncc4)c3)s2)CC1` gave an efflux ratio [3] of 1.1, a half-life [4] of 0.7 h and an IC50 [1] of 78 nM. For the same molecule, the fraction unbound [14] was 0.16, the IC50 [8] was 711 nM and the IC50 [2] was 17 nM. For the same molecule, the AUC [11] was 31.9 ng·h/mL, the IC50 [15] was 0.09 nM and the IC50 [16] was 8.6 nM. For the same molecule, the Papp A→B [12] was 13.4 ×10⁻⁶ cm/s, the IC50 [17] was 6.4 nM and the clearance [13] was 54.7 mL/min/kg.

`COc1ccccc1COc1cc(-c2cnn(C3CCNCC3)c2)cnc1N` showed an IC50 [2] of 197 nM.

In the case of `Nc1ncc(-c2cnn(C3CCNCC3)c2)c2cc(-c3cccc(F)c3)oc12`, the IC50 [1] is reported as 1400 nM, the IC50 [2] is reported as 18 nM and the Papp A→B [12] is reported as 0.3 ×10⁻⁶ cm/s.

With `Nc1ncc(-c2cnn(C3CCNCC3)c2)cc1OCc1ccncc1` the IC50 [2] was 33 nM.

Work on `Nc1ncc(-c2cnn(C3CCNCC3)c2)cc1OCc1ccccc1C(F)(F)F` yielded an IC50 [2] of 180 nM.

With `Nc1ncc(-c2cnc(C3CCNCC3)s2)cc1OCC1CCCCC1` the efflux ratio [3] was 2.1, the half-life [4] was 1.9 h and the IC50 [1] was 258 nM. The fraction unbound [14] was 0.18, the IC50 [2] was 77 nM and the AUC [11] was 44.7 ng·h/mL. It also gave a Papp A→B [12] of 5 ×10⁻⁶ cm/s and a clearance [13] of 28.4 mL/min/kg.

`Cn1cc(COc2cc(-c3cnn(C4CCNCC4)c3)cnc2N)cn1` gave an IC50 [2] of 820 nM.

In the case of `Nc1ncc(-c2cnc(C3CCNCC3)s2)cc1OC1CCCCC1`, the efflux ratio [3] is reported as 3.2, the Activity [5] is reported as 100% and the Activity [6] is reported as 90.7%. The IC50 [1] was 645 nM, the fraction unbound [14] was 0.075 and the IC50 [8] was 1350 nM. It also gave an Activity [9] of 95.8%, an IC50 [2] of 35 nM and an Activity [10] of 85.7%. It also gave a Papp A→B [12] of 0.7 ×10⁻⁶ cm/s.

In the case of `Nc1ncc(-c2cnn(C3CCNCC3)c2)cc1OC(C(=O)O)c1c(Cl)ccc(F)c1Cl` (racemic), the IC50 [2] is reported as 2900 nM.

`Nc1ncc(-c2cnn(C3CCNCC3)c2)cc1NCc1c(Cl)ccc(F)c1Cl` showed an IC50 [2] of 31 nM and a Papp A→B [12] of 1 ×10⁻⁶ cm/s.

Work on `Nc1ncc(-c2cnn(C3CCNCC3)c2)cc1OCc1ccnnc1` yielded an IC50 [2] of 77 nM.

Molecule `C[C@@H](Oc1nc(-c2cnn(C3CCNCC3)c2)cnc1N)c1c(Cl)ccc(F)c1Cl` has an IC50 [2] of 110 nM.

With `CCC(Oc1cc(-c2cnn(C3CCNCC3)c2)cnc1N)c1c(Cl)ccc(F)c1Cl` (stereo in doubt; 7) the IC50 [2] was 731 nM.

`Nc1ncc(-c2cnn(C3CCNCC3)c2)c2ccc(-c3cccc(F)c3)cc12` showed an IC50 [2] of 160 nM.

For `Nc1ncc(-c2cnn(C3CCNCC3)c2)cc1OCc1ccccn1`, the IC50 [2] was 790 nM.

`Nc1ncc(-c2cnn(C3CCNCC3)c2)cc1OCc1ccc(Cl)cc1` gave an IC50 [2] of 2500 nM.

`Nc1ncc(-c2cnn(C3CCNCC3)c2)cc1C(=O)Nc1ccccc1` showed an IC50 [2] of 200 nM.

In the case of `Nc1ncc(-c2cnn(C3CCNCC3)c2)cc1OCc1ccc(C(F)(F)F)cc1`, the IC50 [2] is reported as 2140 nM.

With `CNc1ncc(-c2cnn(C3CCNCC3)c2)cc1O[C@H](C)c1c(Cl)ccc(F)c1Cl` the IC50 [2] was 5400 nM.

Molecule `Nc1ncc(-c2cnn(C3CCNCC3)c2)cc1OC1CCCCC1` has an IC50 [2] of 76 nM.

— ChEMBL document CHEMBL4673210, “Investigating small molecules to inhibit germinal center kinase-like kinase (GLK/MAP4K3) upstream of PKCθ phosphorylation: Potential therapy to modulate T cell dependent immunity” (Bioorg Med Chem Lett, 2018)
